Data reported in US7355042B2, “Treatment of CNS disorders using CNS target modulators” (Hypnion, Inc., priority 2001, dated 2008).
“And” between values parts separate entries of the source, which are not always exact repeats. Equal entries are not always repeated.

What was measured:
male Wistar rats = test: Sleep-wakefulness, locomotor activity and body temperature monitoring (SCORE-2000); assay type: in vivo, rat; details: for sleep continuity, as assessed by sleep bout length: 10 mg/kg PO at CT-18, male Wistar rats; for total sleep time post-treatment: 10 mg/kg PO at CT-18, versus methylcellulose vehicle; for body temperature adverse effects / disproportional locomotor inhibition: rats; for net longest sleep bout post treatment: adjusted using a baseline value at least 24 hours prior; for net longest sleep bout post treatment / average sleep bout / nonREM peak time value / cumulative total increase in nonREM sleep / REM sleep inhibition / locomotor activity inhibition relative to the normal effects of sleep / longest sleep bout / rebound insomnia: functional criteria list; for average sleep bout: at absolute peak; for nonREM peak time value: by the third hour after administration; for cumulative total increase in nonREM sleep: doses that produce maximum sleep consolidation
[1] = molecular target: T1, H1 receptor from bovine cellular membranes (Bos taurus, UniProt P30546); test: H1 binding assay, [3H]pyrilamine displacement; details: Examples 15-17; read-out: Ki, H1 binding assay
T1 construct: the H1 receptor was from bovine cellular membranes; from tissue

[2] = molecular target: T2, human recombinant M1 muscarinic receptor expressed in CHO cells (Homo sapiens, UniProt P11229); test: M1 binding assay (human recombinant), [3H]-scopolamine N-methyl chloride; details: Examples 15-17; unit inferred; read-out: binding affinity for cholinergic (muscarinic) receptor M1
T2 construct: expressed in transfected cells; host or cells: CHO cells
T2 sequence (P11229 1-460): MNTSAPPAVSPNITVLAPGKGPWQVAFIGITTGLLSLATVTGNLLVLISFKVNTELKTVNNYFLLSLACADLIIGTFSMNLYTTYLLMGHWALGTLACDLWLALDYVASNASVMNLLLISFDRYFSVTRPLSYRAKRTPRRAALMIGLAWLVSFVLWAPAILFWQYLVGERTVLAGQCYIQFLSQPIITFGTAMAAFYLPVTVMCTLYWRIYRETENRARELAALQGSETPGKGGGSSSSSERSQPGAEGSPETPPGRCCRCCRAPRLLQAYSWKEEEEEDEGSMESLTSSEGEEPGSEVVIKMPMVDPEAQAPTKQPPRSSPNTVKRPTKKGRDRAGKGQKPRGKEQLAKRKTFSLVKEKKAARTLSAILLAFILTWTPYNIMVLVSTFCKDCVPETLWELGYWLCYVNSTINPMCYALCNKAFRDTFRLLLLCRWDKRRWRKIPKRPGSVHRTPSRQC

[3] = molecular target: T3, human recombinant M2 muscarinic receptor expressed in CHO cells (Homo sapiens, UniProt P08172); test: M2 binding assay (human recombinant); details: Examples 15-17; unit inferred; read-out: binding affinity for cholinergic (muscarinic) receptor M2
T3 construct: expressed in transfected cells; host or cells: CHO cells
T3 sequence (P08172 1-466): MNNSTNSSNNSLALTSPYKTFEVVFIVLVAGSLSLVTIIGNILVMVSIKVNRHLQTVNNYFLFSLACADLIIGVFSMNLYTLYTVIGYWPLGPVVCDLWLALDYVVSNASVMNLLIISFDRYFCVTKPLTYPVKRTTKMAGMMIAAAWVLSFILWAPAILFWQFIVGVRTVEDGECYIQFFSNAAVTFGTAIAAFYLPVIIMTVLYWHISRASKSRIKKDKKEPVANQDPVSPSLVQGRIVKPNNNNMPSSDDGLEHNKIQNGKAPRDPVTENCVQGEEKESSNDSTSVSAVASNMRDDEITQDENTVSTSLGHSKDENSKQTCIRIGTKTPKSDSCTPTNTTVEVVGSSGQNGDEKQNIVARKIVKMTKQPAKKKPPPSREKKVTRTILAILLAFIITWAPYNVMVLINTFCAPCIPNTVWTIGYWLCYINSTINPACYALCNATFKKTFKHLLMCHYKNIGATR

[4] = molecular target: T4, human recombinant M3 muscarinic receptor expressed in CHO cells (Homo sapiens, UniProt P20309); test: M3 binding assay (human recombinant); details: Examples 15-17; unit inferred; read-out: binding affinity for cholinergic (muscarinic) receptor M3
T4 construct: expressed in transfected cells; host or cells: CHO cells
T4 sequence (P20309 whole entry): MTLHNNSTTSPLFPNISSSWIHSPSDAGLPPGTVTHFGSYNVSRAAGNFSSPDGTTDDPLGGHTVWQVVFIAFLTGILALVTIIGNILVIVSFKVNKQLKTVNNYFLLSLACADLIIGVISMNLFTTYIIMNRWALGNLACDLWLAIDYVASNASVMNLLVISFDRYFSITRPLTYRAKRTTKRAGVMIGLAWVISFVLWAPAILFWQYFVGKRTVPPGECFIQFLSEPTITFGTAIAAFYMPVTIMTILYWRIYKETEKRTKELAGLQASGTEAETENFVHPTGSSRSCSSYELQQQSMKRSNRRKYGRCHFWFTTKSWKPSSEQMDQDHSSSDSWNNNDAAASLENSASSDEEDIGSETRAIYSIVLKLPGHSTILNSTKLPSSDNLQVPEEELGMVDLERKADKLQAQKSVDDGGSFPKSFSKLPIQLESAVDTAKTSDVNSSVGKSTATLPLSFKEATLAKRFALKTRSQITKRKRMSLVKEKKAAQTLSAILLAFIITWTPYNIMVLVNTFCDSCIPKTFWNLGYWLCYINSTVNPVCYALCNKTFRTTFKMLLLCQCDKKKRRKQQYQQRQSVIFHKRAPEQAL

T1 sequence (P30546 whole entry): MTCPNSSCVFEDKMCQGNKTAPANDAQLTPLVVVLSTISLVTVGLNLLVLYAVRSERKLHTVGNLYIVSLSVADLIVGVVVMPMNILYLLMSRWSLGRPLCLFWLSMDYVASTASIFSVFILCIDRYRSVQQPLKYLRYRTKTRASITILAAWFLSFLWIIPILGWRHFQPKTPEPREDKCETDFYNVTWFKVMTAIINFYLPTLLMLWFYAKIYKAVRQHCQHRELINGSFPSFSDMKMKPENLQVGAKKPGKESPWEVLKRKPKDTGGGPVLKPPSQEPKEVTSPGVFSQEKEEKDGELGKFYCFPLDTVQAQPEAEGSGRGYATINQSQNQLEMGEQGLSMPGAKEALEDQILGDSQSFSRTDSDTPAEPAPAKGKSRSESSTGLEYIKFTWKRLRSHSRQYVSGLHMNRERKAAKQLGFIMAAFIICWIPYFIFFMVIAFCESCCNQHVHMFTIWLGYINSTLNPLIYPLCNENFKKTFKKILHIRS

Compound	Ki [1]	Ki [2]	Ki [3]	Ki [4]	Average Bout-Length (male Wistar rats; 30 mg/kg PO at CT-18)	Maximum Bout Length (male Wistar rats; 30 mg/kg PO at CT-18)	NREM Accum. (male Wistar rats; 30 mg/kg PO at CT-18)	NREM Peak (%/hr) (male Wistar rats; 30 mg/kg PO at CT-18)	Onset (male Wistar rats; 30 mg/kg PO at CT-18)	sleep continuity, as assessed by sleep bout length (male Wistar rats)	total sleep time post-treatment (male Wistar rats)	body temperature adverse effects (male Wistar rats)	disproportional locomotor inhibition (male Wistar rats)	further results
O=C(O)CCCN1CCC(=C2c3ccccc3COc3ccccc32)CC1 [Compound 73a]					14.5 min	27.6 min	47.3 min	62.2 %/hr	45 min					Duration (hrs) (male Wistar rats; 30 mg/kg PO at CT-18): 5-6+ hrs
CC(C)(CN1CCC(=C2c3ccccc3COc3ccccc32)CC1)C(=O)O [Compound 74a]					9.9 min	22.3 min	43.4 min	64.4 %/hr	70 to 80 min					Duration (male Wistar rats; 30 mg/kg PO at CT-18): 5 to 6 h
CC(C)(CCN1CCC(=C2c3ccccc3COc3ccccc32)CC1)C(=O)O [Compound 75a]					6.8 min	13.6 min	33.9 min	58.8 %/hr	70 to 85 min					Duration (male Wistar rats; 30 mg/kg PO at CT-18): 4 h; Average Bout-Length (male Wistar rats; 45 mg/kg PO at CT-18): 10.8 min; Duration (male Wistar rats; 45 mg/kg PO at CT-18): 5 h; Maximum Bout Length (male Wistar rats; 45 mg/kg PO at CT-18): 19.4 min; NREM Accum. (male Wistar rats; 45 mg/kg PO at CT-18): 33.9 min; NREM Peak (%/hr) (male Wistar rats; 45 mg/kg PO at CT-18): 58.2 %/hr; Onset (male Wistar rats; 45 mg/kg PO at CT-18): 70 to 85 min
CC(C)(CCN1CCN(C2=Nc3ccccc3Oc3ccc(Cl)cc32)CC1)C(=O)O [Compound SS1]	23.9 nM	> 10 µM	> 10 µM	> 10 µM						increased sleep continuity	significantly increased total sleep time	no evidence of causing disproportional locomotor inhibition or body temperature adverse effects	no evidence of causing disproportional locomotor inhibition or body temperature adverse effects	
CC(C)(CN1CCN(C2=Nc3cc(Cl)ccc3Nc3ccccc32)CC1)C(=O)O [Compound SS2]	23.4 nM	> 10 µM	> 10 µM	> 10 µM						increased sleep continuity	significantly increased total sleep time	no evidence of causing disproportional locomotor inhibition or body temperature adverse effects	no evidence of causing disproportional locomotor inhibition or body temperature adverse effects	

Second part, led by results:

Ki [1]	Ki [2]	Ki [3]	Ki [4]	Compound	Average Bout-Length (male Wistar rats; 30 mg/kg PO at CT-18)	Maximum Bout Length (male Wistar rats; 30 mg/kg PO at CT-18)	NREM Accum. (male Wistar rats; 30 mg/kg PO at CT-18)	NREM Peak (%/hr) (male Wistar rats; 30 mg/kg PO at CT-18)	Onset (male Wistar rats; 30 mg/kg PO at CT-18)	sleep continuity, as assessed by sleep bout length (male Wistar rats)	total sleep time post-treatment (male Wistar rats)	body temperature adverse effects (male Wistar rats)	disproportional locomotor inhibition (male Wistar rats)	further results
< 500 nM				Cl.O=C(O)CCN1CCC(=C(c2ccccc2)c2ccccc2)CC1 [Compound U1]						increased sleep continuity	significantly increased total sleep time	no evidence of causing disproportional locomotor inhibition or body temperature adverse effects	no evidence of causing disproportional locomotor inhibition or body temperature adverse effects	net longest sleep bout post treatment (male Wistar rats): greater than or equal to 3 minutes; average sleep bout (male Wistar rats): greater than 5 minutes; nonREM peak time value (male Wistar rats): greater than 55 % nonREM sleep per hour; cumulative total increase in nonREM sleep (male Wistar rats): not less than 20 minutes; REM sleep inhibition (male Wistar rats): does not appreciably inhibit REM sleep; locomotor activity inhibition relative to the normal effects of sleep (male Wistar rats): does not disproportionately inhibit locomotor activity; longest sleep bout (male Wistar rats): greater than 13 minutes; rebound insomnia (male Wistar rats): does not produce appreciable amounts of rebound insomnia
< 500 nM and 13.6 nM	> 10 µM	> 10 µM	> 10 µM	CC(C)(CN1CCC(N2c3ccccc3Sc3ccccc32)CC1)C(=O)O.Cl [Compound UU1]						increased sleep continuity	significantly increased total sleep time	no evidence of causing disproportional locomotor inhibition or body temperature adverse effects	no evidence of causing disproportional locomotor inhibition or body temperature adverse effects	net longest sleep bout post treatment (male Wistar rats): greater than or equal to 3 minutes; average sleep bout (male Wistar rats): greater than 5 minutes; nonREM peak time value (male Wistar rats): greater than 55 % nonREM sleep per hour; cumulative total increase in nonREM sleep (male Wistar rats): not less than 20 minutes; REM sleep inhibition (male Wistar rats): does not appreciably inhibit REM sleep; locomotor activity inhibition relative to the normal effects of sleep (male Wistar rats): does not disproportionately inhibit locomotor activity; longest sleep bout (male Wistar rats): greater than 13 minutes; rebound insomnia (male Wistar rats): does not produce appreciable amounts of rebound insomnia
